Laboratory results published in ChEMBL document CHEMBL1133036, “Diacylglycerols with lipophilically equivalent branched acyl chains display high affinity for protein kinase C (PK-C). A direct measure of the effect of constraining the glycerol backbone in DAG lactones” (Bioorg Med Chem Lett, 2000).

Experiment: Partition coefficient (logD)
Assay type: physicochemical
Conditions: octanol/water

Point of comparison: O=C(OC[C@H](CO)OC(=O)C12CC3CC(CC(C3)C1)C2)C12CC3CC(CC(C3)C1)C2, logD 5. Against it:
- CC(C)C(C/C=C1/CC(CO)(COC(=O)CC(C(C)C)C(C)C)OC1=O)C(C)C (stereo unspecified) — the same, 5
- CC(C)C(CC(=O)OC[C@H](CO)OC(=O)CC(C(C)C)C(C)C)C(C)C — the same, 5
- CCCCCCCC(=O)OC[C@H](CO)OC(=O)CCCCCCC — the same, 5
- CCCCCCCC/C=C/CCCCCCCC(=O)O[C@@H](CO)COC(C)=O [AUTONOM NAME:] — higher, 7
- CC(C)(C)C(=O)OCC(CO)OC(=O)C(C)(C)C (stereo unspecified) — lower, 2
